Assay results reported in BindingDB's records for doi:10.1016/0028-3908(96)84644-2 (Abbott Laboratories, 1996).
Where “and” joins values, the source holds several entries; their conditions need not be identical. Equal entries are not always repeated.

Experiments:
Protein kinase C = Protein kinase C (Drosophila melanogaster, UniProt P13678)
GLRA1 protein = GLRA1 protein (Homo sapiens, UniProt Q14C71)
[1] = molecular target: Voltage-dependent N-type calcium channel subunit alpha-1B (Rattus norvegicus, UniProt Q02294)
[2] = molecular target: Voltage-dependent T-type calcium channel subunit alpha-1H (Homo sapiens, UniProt O95180)
[3] = molecular target: Gamma-aminobutyric acid receptor subunit alpha-1 (Homo sapiens, UniProt P14867)
[4] = molecular target: Sodium channel protein type 2 subunit alpha (Homo sapiens, UniProt Q99250)
[5] = molecular target: Glutamate receptor ionotropic, kainate 2 (Homo sapiens, UniProt Q13002)
[6] = molecular target: Putative choline uptake ABC transporter permease protein (Rhizobium meliloti (strain 1021), UniProt Q92V96)
Beta-nerve growth factor = Beta-nerve growth factor (Homo sapiens, UniProt P01138)
[7] = molecular target: Neuronal acetylcholine receptor subunit alpha-7 (Homo sapiens, UniProt P36544)
[8] = molecular target: Potassium voltage-gated channel subfamily A member 1 (Homo sapiens, UniProt Q09470)
Substance-P receptor = Substance-P receptor (Homo sapiens, UniProt P25103)
[9] = molecular target: 5-hydroxytryptamine receptor 1A (Homo sapiens, UniProt P08908)
[10] = molecular target: Glutamate receptor ionotropic, NMDA 1 (Rattus norvegicus, UniProt P35439)
Neuromedin-K receptor = Neuromedin-K receptor (Homo sapiens, UniProt P29371)
[11] = molecular target: Acetylcholine receptor subunit alpha (Rattus norvegicus, UniProt P25108)
[12] = molecular target: 5-hydroxytryptamine receptor 2C (Homo sapiens, UniProt P28335)
[13] = molecular target: 5-hydroxytryptamine receptor 1A/1B/1D/2C (Homo sapiens, UniProt P08908+P28221+P28222+P28335)
[14] = molecular target: Beta-2 adrenergic receptor (Mus musculus, UniProt P18762)
Adenosine receptor A1 = Adenosine receptor A1 (Homo sapiens, UniProt P30542)
Substance-K receptor = Substance-K receptor (Bos taurus, UniProt P05363)
[15] = molecular target: Delta-type opioid receptor (Homo sapiens, UniProt P41143)
[16] = molecular target: Sodium-dependent noradrenaline transporter (Homo sapiens, UniProt P23975)
Somatostatin = Somatostatin (Rattus norvegicus, UniProt P60042)
[17] = molecular target: 5-hydroxytryptamine receptor 1B (Canis lupus familiaris, UniProt P79250)
[18] = molecular target: Gamma-aminobutyric acid type B receptor subunit 1 (Homo sapiens, UniProt Q9UBS5)
[19] = molecular target: Neuronal acetylcholine receptor subunit alpha-4 (Homo sapiens, UniProt P43681)
Apamin = Apamin (Apis mellifera, UniProt P01500)
[20] = molecular target: ATP-sensitive inward rectifier potassium channel 11 (Homo sapiens, UniProt Q14654)
Glutamate receptor 3 = Glutamate receptor 3 (Homo sapiens, UniProt P42263)
[21] = molecular target: Kappa-type opioid receptor (Homo sapiens, UniProt P41145)
Mu-type opioid receptor = Mu-type opioid receptor (Rattus norvegicus, UniProt P33535)
[22] = molecular target: Adrenergic alpha2 receptor (Mesocricetus auratus, UniProt Q60533)
D(2) dopamine receptor = D(2) dopamine receptor (Homo sapiens, UniProt P14416)
[23] = molecular target: Solute carrier family 22 member 1 (Rattus norvegicus, UniProt Q63089)
[24] = molecular target: Chloride channel protein 1 (Homo sapiens, UniProt P35523)
[25] = molecular target: Sodium-dependent dopamine transporter (Homo sapiens, UniProt Q01959)
[26] = molecular target: Gamma-aminobutyric acid type B receptor subunit 1 (UniProt Q9Z0U4)
Adenosine receptor A2a = Adenosine receptor A2a (Homo sapiens, UniProt P29274)

Acetylcholine receptor subunit alpha, sequence (P25108 whole entry): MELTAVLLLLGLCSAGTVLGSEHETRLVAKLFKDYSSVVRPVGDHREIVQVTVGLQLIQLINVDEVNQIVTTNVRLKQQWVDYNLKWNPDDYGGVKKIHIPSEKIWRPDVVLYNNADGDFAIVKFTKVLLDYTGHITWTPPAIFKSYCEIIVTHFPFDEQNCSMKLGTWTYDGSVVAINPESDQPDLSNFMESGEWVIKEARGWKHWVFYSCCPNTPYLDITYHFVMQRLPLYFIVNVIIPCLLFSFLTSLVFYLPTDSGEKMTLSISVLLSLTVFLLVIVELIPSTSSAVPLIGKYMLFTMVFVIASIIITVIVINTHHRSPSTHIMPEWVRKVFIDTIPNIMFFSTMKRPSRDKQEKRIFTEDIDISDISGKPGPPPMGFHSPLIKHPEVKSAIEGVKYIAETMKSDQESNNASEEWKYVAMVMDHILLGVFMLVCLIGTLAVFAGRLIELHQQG
Neuronal acetylcholine receptor subunit alpha-7, sequence (P36544 whole entry): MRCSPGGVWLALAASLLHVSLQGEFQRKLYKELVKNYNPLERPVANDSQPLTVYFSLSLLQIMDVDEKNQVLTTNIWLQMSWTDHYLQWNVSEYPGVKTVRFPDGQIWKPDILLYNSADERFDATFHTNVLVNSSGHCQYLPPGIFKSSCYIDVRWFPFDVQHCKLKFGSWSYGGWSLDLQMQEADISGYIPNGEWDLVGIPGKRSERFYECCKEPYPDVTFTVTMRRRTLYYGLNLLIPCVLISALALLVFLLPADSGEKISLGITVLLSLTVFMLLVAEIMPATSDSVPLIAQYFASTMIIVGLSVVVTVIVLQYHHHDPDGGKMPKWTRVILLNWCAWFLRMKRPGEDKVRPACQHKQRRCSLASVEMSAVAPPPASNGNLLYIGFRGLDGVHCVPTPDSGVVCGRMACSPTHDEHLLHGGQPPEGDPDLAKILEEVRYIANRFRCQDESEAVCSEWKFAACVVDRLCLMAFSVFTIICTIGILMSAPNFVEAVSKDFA
Sodium-dependent noradrenaline transporter, sequence (P23975 whole entry): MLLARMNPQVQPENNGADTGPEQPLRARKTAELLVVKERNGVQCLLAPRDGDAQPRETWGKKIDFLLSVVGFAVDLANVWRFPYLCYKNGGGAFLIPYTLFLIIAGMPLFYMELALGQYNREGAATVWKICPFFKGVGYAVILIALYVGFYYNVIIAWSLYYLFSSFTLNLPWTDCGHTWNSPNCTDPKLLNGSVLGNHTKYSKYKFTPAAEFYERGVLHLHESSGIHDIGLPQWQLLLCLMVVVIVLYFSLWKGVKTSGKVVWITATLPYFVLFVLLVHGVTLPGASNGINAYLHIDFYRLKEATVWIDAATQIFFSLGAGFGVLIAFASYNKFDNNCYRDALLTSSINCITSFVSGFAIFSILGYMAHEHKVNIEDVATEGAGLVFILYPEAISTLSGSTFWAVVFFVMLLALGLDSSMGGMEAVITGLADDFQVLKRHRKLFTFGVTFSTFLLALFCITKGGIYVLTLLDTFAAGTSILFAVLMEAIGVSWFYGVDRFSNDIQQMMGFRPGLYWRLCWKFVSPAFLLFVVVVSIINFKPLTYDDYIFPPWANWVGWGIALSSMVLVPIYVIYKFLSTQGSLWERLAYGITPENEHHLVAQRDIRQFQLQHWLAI
Adrenergic alpha2 receptor, sequence (Q60533 whole entry): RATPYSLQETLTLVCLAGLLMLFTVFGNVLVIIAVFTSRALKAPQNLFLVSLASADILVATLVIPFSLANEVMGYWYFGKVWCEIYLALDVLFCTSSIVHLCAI
Mu-type opioid receptor, sequence (P33535 whole entry): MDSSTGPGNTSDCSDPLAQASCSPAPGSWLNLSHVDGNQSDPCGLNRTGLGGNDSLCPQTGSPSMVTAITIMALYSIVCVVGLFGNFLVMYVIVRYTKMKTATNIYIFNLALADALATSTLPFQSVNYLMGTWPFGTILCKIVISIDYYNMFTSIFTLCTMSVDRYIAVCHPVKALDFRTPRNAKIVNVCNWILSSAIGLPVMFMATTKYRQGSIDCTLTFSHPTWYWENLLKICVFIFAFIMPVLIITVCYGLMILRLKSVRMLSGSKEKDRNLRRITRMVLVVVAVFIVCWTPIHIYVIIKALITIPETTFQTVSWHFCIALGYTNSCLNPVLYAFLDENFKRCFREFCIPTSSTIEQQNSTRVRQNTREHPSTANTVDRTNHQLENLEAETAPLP
Beta-nerve growth factor, sequence (P01138 122-241 limits assumed): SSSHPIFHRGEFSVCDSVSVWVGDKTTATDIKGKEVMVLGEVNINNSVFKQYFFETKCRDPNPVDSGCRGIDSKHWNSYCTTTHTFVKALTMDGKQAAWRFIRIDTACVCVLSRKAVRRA
Substance-P receptor, sequence (P25103 whole entry): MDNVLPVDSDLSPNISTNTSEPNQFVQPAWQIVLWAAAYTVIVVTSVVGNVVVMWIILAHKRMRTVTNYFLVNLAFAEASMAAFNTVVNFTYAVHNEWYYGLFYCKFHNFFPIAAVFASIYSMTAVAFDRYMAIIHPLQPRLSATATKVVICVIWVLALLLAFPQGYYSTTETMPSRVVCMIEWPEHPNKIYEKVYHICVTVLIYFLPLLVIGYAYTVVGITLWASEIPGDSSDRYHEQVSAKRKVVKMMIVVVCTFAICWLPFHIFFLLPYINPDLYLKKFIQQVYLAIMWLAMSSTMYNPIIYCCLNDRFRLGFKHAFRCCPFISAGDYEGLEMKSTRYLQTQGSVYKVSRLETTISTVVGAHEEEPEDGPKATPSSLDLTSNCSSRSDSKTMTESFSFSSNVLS
Potassium voltage-gated channel subfamily A member 1, sequence (Q09470 whole entry): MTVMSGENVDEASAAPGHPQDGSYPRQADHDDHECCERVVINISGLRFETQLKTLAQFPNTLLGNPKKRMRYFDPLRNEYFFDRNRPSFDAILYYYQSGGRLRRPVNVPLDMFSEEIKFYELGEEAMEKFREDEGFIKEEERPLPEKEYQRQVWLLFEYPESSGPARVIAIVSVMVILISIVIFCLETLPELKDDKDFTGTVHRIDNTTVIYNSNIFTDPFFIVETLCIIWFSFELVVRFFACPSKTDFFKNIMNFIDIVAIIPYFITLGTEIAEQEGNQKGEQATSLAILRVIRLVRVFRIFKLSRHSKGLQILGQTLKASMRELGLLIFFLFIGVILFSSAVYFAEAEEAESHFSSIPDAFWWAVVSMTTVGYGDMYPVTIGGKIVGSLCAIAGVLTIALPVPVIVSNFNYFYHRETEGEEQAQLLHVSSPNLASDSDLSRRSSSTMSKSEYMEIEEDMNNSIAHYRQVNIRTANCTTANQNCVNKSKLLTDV
Putative choline uptake ABC transporter permease protein, sequence (Q92V96 whole entry): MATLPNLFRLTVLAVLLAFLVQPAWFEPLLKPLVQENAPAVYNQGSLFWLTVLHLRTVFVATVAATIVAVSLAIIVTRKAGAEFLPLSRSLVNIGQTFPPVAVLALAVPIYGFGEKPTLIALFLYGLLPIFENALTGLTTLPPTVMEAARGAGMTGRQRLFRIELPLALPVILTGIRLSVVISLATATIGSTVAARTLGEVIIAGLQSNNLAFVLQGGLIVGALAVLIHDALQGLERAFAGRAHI
D(2) dopamine receptor, sequence (P14416 whole entry): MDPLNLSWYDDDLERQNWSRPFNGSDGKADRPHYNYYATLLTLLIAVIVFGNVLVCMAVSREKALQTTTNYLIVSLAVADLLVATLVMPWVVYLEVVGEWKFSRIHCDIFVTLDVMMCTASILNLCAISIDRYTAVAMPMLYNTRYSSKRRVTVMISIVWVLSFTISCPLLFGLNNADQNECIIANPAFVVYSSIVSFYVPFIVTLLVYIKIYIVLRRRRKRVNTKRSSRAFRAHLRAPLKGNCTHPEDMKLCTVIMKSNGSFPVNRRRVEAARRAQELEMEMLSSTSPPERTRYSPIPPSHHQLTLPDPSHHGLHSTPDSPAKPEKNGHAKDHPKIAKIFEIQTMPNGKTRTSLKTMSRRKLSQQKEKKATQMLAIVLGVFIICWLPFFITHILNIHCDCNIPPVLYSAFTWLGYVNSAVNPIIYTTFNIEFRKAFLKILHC
Beta-2 adrenergic receptor, sequence (P18762 whole entry): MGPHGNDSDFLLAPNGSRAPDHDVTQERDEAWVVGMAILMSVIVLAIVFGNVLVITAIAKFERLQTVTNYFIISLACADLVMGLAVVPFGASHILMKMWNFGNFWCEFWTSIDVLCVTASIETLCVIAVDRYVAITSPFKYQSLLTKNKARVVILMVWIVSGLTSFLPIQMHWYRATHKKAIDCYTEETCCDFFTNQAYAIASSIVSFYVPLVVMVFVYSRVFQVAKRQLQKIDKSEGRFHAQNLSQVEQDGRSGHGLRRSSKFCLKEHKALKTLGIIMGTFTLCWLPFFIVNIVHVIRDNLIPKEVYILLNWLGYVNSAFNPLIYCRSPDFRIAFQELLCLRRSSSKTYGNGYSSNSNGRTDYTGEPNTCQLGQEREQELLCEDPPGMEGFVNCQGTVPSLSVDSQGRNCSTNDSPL
GLRA1 protein, sequence (Q14C71 whole entry): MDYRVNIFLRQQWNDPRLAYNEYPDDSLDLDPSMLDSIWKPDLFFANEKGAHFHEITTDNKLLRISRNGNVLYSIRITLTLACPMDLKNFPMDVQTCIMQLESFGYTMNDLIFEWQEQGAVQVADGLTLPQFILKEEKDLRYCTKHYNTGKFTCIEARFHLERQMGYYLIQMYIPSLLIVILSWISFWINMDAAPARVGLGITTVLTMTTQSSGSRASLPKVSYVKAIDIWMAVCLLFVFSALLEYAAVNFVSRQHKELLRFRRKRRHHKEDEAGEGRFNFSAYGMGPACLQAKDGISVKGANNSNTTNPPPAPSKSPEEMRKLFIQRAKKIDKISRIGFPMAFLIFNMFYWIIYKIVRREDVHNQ
Adenosine receptor A1, sequence (P30542 whole entry): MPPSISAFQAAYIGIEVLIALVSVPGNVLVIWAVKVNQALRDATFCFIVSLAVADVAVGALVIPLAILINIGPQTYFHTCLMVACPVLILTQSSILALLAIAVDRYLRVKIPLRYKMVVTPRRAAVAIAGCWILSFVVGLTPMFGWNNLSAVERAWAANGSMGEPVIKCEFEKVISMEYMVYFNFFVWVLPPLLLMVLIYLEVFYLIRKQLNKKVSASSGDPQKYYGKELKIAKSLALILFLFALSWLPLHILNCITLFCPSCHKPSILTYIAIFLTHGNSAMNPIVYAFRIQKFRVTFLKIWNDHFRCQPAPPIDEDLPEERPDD

Which Ki (Protein kinase C) does the source give for `c1cncc(OC[C@@H]2CCN2)c1` here?
Its Ki is over 10 µM.

And the Ki (GLRA1 protein)?
The Ki was over 10 µM.

And the Ki [1]?
Its Ki is over 10 µM.

What about the Ki [2] of the same compound?
Its Ki is over 10 µM.

What about the Ki [3] of the same compound?
Its Ki is over 10 µM.

What about the Ki [4] of the same compound?
Its Ki is over 10 µM.

What about the Ki [5] of the same compound?
The Ki was over 10 µM.

What about the Ki [6] of the same compound?
Its Ki is over 10 µM.

What about the Ki (Beta-nerve growth factor) of the same compound?
The Ki was over 10 µM.

And the Ki [7]?
Its Ki is 1.27 µM and 0.148 µM.

And the Ki [8]?
Its Ki is over 10 µM.

What about the Ki (Substance-P receptor) of the same compound?
Its Ki is over 10 µM.

What about the Ki [9] of the same compound?
The Ki was over 10 µM.

And the Ki [10]?
Its Ki is over 10 µM.

And the Ki (Neuromedin-K receptor)?
The Ki was over 10 µM.

And the Ki [11]?
The Ki was 0.384 µM and 0.314 µM.

And the Ki [12]?
The Ki was over 10 µM.

And the Ki [13]?
The Ki was over 10 µM.

What about the Ki [14] of the same compound?
The Ki was over 10 µM.

What about the Ki (Adenosine receptor A1) of the same compound?
The Ki was over 10 µM.

And the Ki (Substance-K receptor)?
Its Ki is over 10 µM.

What about the Ki [15] of the same compound?
Its Ki is over 10 µM.

What about the Ki [16] of the same compound?
Its Ki is over 10 µM.

What about the Ki (Somatostatin) of the same compound?
Its Ki is over 10 µM.

And the Ki [17]?
Its Ki is over 10 µM.

What about the Ki [18] of the same compound?
Its Ki is over 10 µM.

And the Ki [19]?
The Ki was 0.04 nM.

And the Ki (Apamin)?
The Ki was over 10 µM.

What about the Ki [20] of the same compound?
Its Ki is over 10 µM.

And the Ki (Glutamate receptor 3)?
Its Ki is over 10 µM.

And the Ki [21]?
Its Ki is over 10 µM.

What about the Ki (Mu-type opioid receptor) of the same compound?
The Ki was over 10 µM.

What about the Ki [22] of the same compound?
Its Ki is over 10 µM.

What about the Ki (D(2) dopamine receptor) of the same compound?
The Ki was over 10 µM.

And the Ki [23]?
Its Ki is over 10 µM.

What about the Ki [24] of the same compound?
The Ki was over 10 µM.

And the Ki [25]?
Its Ki is over 10 µM.

And the Ki [26]?
The Ki was over 10 µM.

What about the Ki (Adenosine receptor A2a) of the same compound?
Its Ki is over 10 µM.

With `CN1CCC[C@H]1c1cccnc1` [(R,S)-nicotine] as the compound, how does the Ki [11] read?
Its Ki is over 10 µM.
